Experimental data taken from BindingDB's records for doi:10.1021/jm010087e (The University of Western Australia, 2001).

Assay: Inhibitory activity against clostridium histolyticum collagenase

**Q.** With `CC(C(=O)NO)N(Cc1ccccc1[N+](=O)[O-])S(=O)(=O)c1ccc([N+](=O)[O-])c(Cl)c1` (centres undefined) [2-[(3-Chloro-4-nitro-benzenesulfonyl)-(2-nitro-benzyl)-amino]-N-hydroxy-propionamide] as the compound, how does the Ki read?
**A.** Its Ki is 9 nM.

**Q.** Which Ki does the source give for `CC(C(=O)O)N(Cc1ccccc1[N+](=O)[O-])S(=O)(=O)c1ccc([N+](=O)[O-])c(Cl)c1` (centres undefined) [2-[(3-Chloro-4-nitro-benzenesulfonyl)-(2-nitro-benzyl)-amino]-propionic acid] here?
**A.** Its Ki is 3100 nM.

**Q.** For `CC(C(=O)O)N(Cc1ccccc1[N+](=O)[O-])S(=O)(=O)c1cccc([N+](=O)[O-])c1` (centres undefined) [2-[(3-Nitro-benzenesulfonyl)-(2-nitro-benzyl)-amino]-propionic acid], which Ki is on record?
**A.** Its Ki is 5200 nM.

**Q.** With `COc1ccc(S(=O)(=O)N(Cc2ccccc2[N+](=O)[O-])C(C)C(=O)O)cc1NC(=O)OC(C)(C)C` (centres undefined) [2-[(3-tert-Butoxycarbonylamino-4-methoxy-benzenesulfonyl)-(2-nitro-benzyl)-amino]-propionic acid] as the compound, how does the Ki read?
**A.** Its Ki is 2500 nM.

**Q.** With `CC(C(=O)O)N(Cc1ccccc1[N+](=O)[O-])S(=O)(=O)c1cccc(NC(=O)OC(C)(C)C)c1` (centres undefined) [2-[(3-tert-Butoxycarbonylamino-benzenesulfonyl)-(2-nitro-benzyl)-amino]-propionic acid] as the compound, how does the Ki read?
**A.** Its Ki is 2500 nM.

**Q.** For `CC(=O)c1ccc(S(=O)(=O)N(Cc2ccccc2[N+](=O)[O-])C(C)C(=O)NO)cc1` (centres undefined) [2-[(4-Acetyl-benzenesulfonyl)-(2-nitro-benzyl)-amino]-N-hydroxy-propionamide], which Ki is on record?
**A.** Its Ki is 10 nM.

**Q.** For `CC(=O)c1ccc(S(=O)(=O)N(Cc2ccccc2[N+](=O)[O-])C(C)C(=O)O)cc1` (centres undefined) [2-[(4-Acetyl-benzenesulfonyl)-(2-nitro-benzyl)-amino]-propionic acid], which Ki is on record?
**A.** Its Ki is 2000 nM.

**Q.** Which Ki does the source give for `CC(=O)Nc1ccc(S(=O)(=O)N(Cc2ccccc2[N+](=O)[O-])C(C)C(=O)NO)cc1` (centres undefined) [2-[(4-Acetylamino-benzenesulfonyl)-(2-nitro-benzyl)-amino]-N-hydroxy-propionamide] here?
**A.** The Ki was 12 nM.

**Q.** For `CC(=O)Nc1ccc(S(=O)(=O)N(Cc2ccccc2[N+](=O)[O-])C(C)C(=O)O)cc1` (centres undefined) [2-[(4-Acetylamino-benzenesulfonyl)-(2-nitro-benzyl)-amino]-propionic acid], which Ki is on record?
**A.** The Ki was 3300 nM.

**Q.** For `CC(C(=O)NO)N(Cc1ccccc1[N+](=O)[O-])S(=O)(=O)c1ccc(Br)cc1` (centres undefined) [2-[(4-Bromo-benzenesulfonyl)-(2-nitro-benzyl)-amino]-N-hydroxy-propionamide], which Ki is on record?
**A.** Its Ki is 33 nM.

**Q.** For `CC(C(=O)O)N(Cc1ccccc1[N+](=O)[O-])S(=O)(=O)c1ccc(Br)cc1` (centres undefined) [2-[(4-Bromo-benzenesulfonyl)-(2-nitro-benzyl)-amino]-propionic acid], which Ki is on record?
**A.** The Ki was 10000 nM.

**Q.** With `CC(C(=O)NO)N(Cc1ccccc1[N+](=O)[O-])S(=O)(=O)c1ccc(Cl)cc1` (centres undefined) [2-[(4-Chloro-benzenesulfonyl)-(2-nitro-benzyl)-amino]-N-hydroxy-propionamide] as the compound, how does the Ki read?
**A.** The Ki was 32 nM.

**Q.** Which Ki does the source give for `CC(C(=O)O)N(Cc1ccccc1[N+](=O)[O-])S(=O)(=O)c1ccc(Cl)cc1` (centres undefined) [2-[(4-Chloro-benzenesulfonyl)-(2-nitro-benzyl)-amino]-propionic acid] here?
**A.** The Ki was 11000 nM.

**Q.** Which Ki does the source give for `CC(C(=O)NO)N(Cc1ccccc1[N+](=O)[O-])S(=O)(=O)c1ccc(F)cc1` (centres undefined) [2-[(4-Fluoro-benzenesulfonyl)-(2-nitro-benzyl)-amino]-N-hydroxy-propionamide] here?
**A.** Its Ki is 30 nM.

**Q.** With `CC(C(=O)O)N(Cc1ccccc1[N+](=O)[O-])S(=O)(=O)c1ccc(F)cc1` (centres undefined) [2-[(4-Fluoro-benzenesulfonyl)-(2-nitro-benzyl)-amino]-propionic acid] as the compound, how does the Ki read?
**A.** Its Ki is 12000 nM.

**Q.** With `CC(C(=O)O)N(Cc1ccccc1[N+](=O)[O-])S(=O)(=O)c1ccc(I)cc1` (centres undefined) [2-[(4-Iodo-benzenesulfonyl)-(2-nitro-benzyl)-amino]-propionic acid] as the compound, how does the Ki read?
**A.** The Ki was 11000 nM.

**Q.** With `COc1ccc(S(=O)(=O)N(Cc2ccccc2[N+](=O)[O-])C(C)C(=O)O)cc1` (centres undefined) [2-[(4-Methoxy-benzenesulfonyl)-(2-nitro-benzyl)-amino]-propionic acid] as the compound, how does the Ki read?
**A.** The Ki was 5700 nM.

**Q.** Which Ki does the source give for `CC(C(=O)O)N(Cc1ccccc1[N+](=O)[O-])S(=O)(=O)c1ccc([N+](=O)[O-])cc1` (centres undefined) [2-[(4-Nitro-benzenesulfonyl)-(2-nitro-benzyl)-amino]-propionic acid] here?
**A.** The Ki was 5000 nM.

**Q.** For `CC(C(=O)O)N(Cc1ccccc1[N+](=O)[O-])S(=O)(=O)c1ccc(NC(=O)OC(C)(C)C)cc1` (centres undefined) [2-[(4-tert-Butoxycarbonylamino-benzenesulfonyl)-(2-nitro-benzyl)-amino]-propionic acid], which Ki is on record?
**A.** The Ki was 2600 nM.

**Q.** With `CC(C(=O)NO)N(Cc1ccccc1[N+](=O)[O-])S(=O)(=O)c1cccc2c(N(C)C)cccc12` (centres undefined) [2-[(5-Dimethylamino-naphthalene-1-sulfonyl)-(2-nitro-benzyl)-amino]-N-hydroxy-propionamide] as the compound, how does the Ki read?
**A.** Its Ki is 9 nM.

**Q.** For `CC(C(=O)O)N(Cc1ccccc1[N+](=O)[O-])S(=O)(=O)c1cccc2c(N(C)C)cccc12` (centres undefined) [2-[(5-Dimethylamino-naphthalene-1-sulfonyl)-(2-nitro-benzyl)-amino]-propionic acid], which Ki is on record?
**A.** Its Ki is 2100 nM.

**Q.** Which Ki does the source give for `CC(C(=O)NO)N(Cc1ccccc1[N+](=O)[O-])S(=O)(=O)C(F)(F)C(F)(F)C(F)(F)C(F)(F)C(F)(F)C(F)(F)C(F)(F)C(F)(F)F` (centres undefined) [2-[(Heptadecafluorooctane-1-sulfonyl)-(2-nitro-benzyl)-amino]-N-hydroxy-propionamide] here?
**A.** The Ki was 8 nM.

**Q.** Which Ki does the source give for `CC(C(=O)O)N(Cc1ccccc1[N+](=O)[O-])S(=O)(=O)C(F)(F)C(F)(F)C(F)(F)C(F)(F)C(F)(F)C(F)(F)C(F)(F)C(F)(F)F` (centres undefined) [2-[(Heptadecafluorooctane-1-sulfonyl)-(2-nitro-benzyl)-amino]-propionic acid] here?
**A.** Its Ki is 1700 nM.

**Q.** For `CC(C(=O)O)N(Cc1ccccc1[N+](=O)[O-])S(=O)(=O)c1cccc2ccccc12` (centres undefined) [2-[(Naphthalene-1-sulfonyl)-(2-nitro-benzyl)-amino]-propionic acid], which Ki is on record?
**A.** The Ki was 1600 nM.

**Q.** With `CC(C(=O)O)N(Cc1ccccc1[N+](=O)[O-])S(=O)(=O)c1ccc2ccccc2c1` (centres undefined) [2-[(Naphthalene-2-sulfonyl)-(2-nitro-benzyl)-amino]-propionic acid] as the compound, how does the Ki read?
**A.** The Ki was 1800 nM.

**Q.** For `Cc1ccccc1S(=O)(=O)NC(=O)N(Cc1ccccc1[N+](=O)[O-])C(C)C(=O)O` (centres undefined) [2-[({[(2-methylphenyl)sulfonyl]amino}carbonyl)(2-nitrobenzyl)amino]propanoic acid], which Ki is on record?
**A.** The Ki was 3000 nM.

**Q.** With `CC(C(=O)NO)N(Cc1ccccc1[N+](=O)[O-])C(=O)NS(=O)(=O)c1ccc(Cl)cc1` (centres undefined) [2-[({[(4-chlorophenyl)sulfonyl]amino}carbonyl)(2-nitrobenzyl)amino]-N-hydroxypropanamide] as the compound, how does the Ki read?
**A.** The Ki was 7 nM.

**Q.** With `CC(C(=O)O)N(Cc1ccccc1[N+](=O)[O-])C(=O)NS(=O)(=O)c1ccc(Cl)cc1` (centres undefined) [2-[({[(4-chlorophenyl)sulfonyl]amino}carbonyl)(2-nitrobenzyl)amino]propanoic acid] as the compound, how does the Ki read?
**A.** The Ki was 2700 nM.

**Q.** Which Ki does the source give for `CC(C(=O)NO)N(Cc1ccccc1[N+](=O)[O-])C(=O)NS(=O)(=O)c1ccc(F)cc1` (centres undefined) [2-[({[(4-fluorophenyl)sulfonyl]amino}carbonyl)(2-nitrobenzyl)amino]-N-hydroxypropanamide] here?
**A.** The Ki was 8 nM.

**Q.** Which Ki does the source give for `CC(C(=O)O)N(Cc1ccccc1[N+](=O)[O-])C(=O)NS(=O)(=O)c1ccc(F)cc1` (centres undefined) [2-[({[(4-fluorophenyl)sulfonyl]amino}carbonyl)(2-nitrobenzyl)amino]propanoic acid] here?
**A.** Its Ki is 3000 nM.

**Q.** For `Cc1ccc(S(=O)(=O)NC(=O)N(Cc2ccccc2[N+](=O)[O-])C(C)C(=O)O)cc1` (centres undefined) [2-[({[(4-methylphenyl)sulfonyl]amino}carbonyl)(2-nitrobenzyl)amino]propanoic acid], which Ki is on record?
**A.** The Ki was 3100 nM.

**Q.** Which Ki does the source give for `CC(C(=O)NO)N(Cc1ccccc1[N+](=O)[O-])S(=O)(=O)c1ccccc1` (centres undefined) [2-[Benzenesulfonyl-(2-nitro-benzyl)-amino]-N-hydroxy-propionamide] here?
**A.** The Ki was 59 nM.

**Q.** With `CC(C(=O)O)N(Cc1ccccc1[N+](=O)[O-])S(=O)(=O)c1ccccc1` (centres undefined) [2-[Benzenesulfonyl-(2-nitro-benzyl)-amino]-propionic acid] as the compound, how does the Ki read?
**A.** The Ki was 27000 nM.

**Q.** With `CC(C(=O)O)N(Cc1ccccc1[N+](=O)[O-])S(C)(=O)=O` (centres undefined) [2-[Methanesulfonyl-(2-nitro-benzyl)-amino]-propionic acid] as the compound, how does the Ki read?
**A.** Its Ki is 22000 nM.

**Q.** Which Ki does the source give for `CC(C(=O)NO)N(Cc1ccccc1[N+](=O)[O-])S(=O)(=O)N(C)C` (centres undefined) [2-[[(dimethylamino)sulfonyl](2-nitrobenzyl)amino]-N-hydroxypropanamide] here?
**A.** Its Ki is 79 nM.

**Q.** Which Ki does the source give for `CC(C(=O)O)N(Cc1ccccc1[N+](=O)[O-])S(=O)(=O)N(C)C` (centres undefined) [2-[[(dimethylamino)sulfonyl](2-nitrobenzyl)amino]propanoic acid] here?
**A.** Its Ki is 43000 nM.

**Q.** For `CC(C(=O)O)N(Cc1ccccc1[N+](=O)[O-])S(=O)(=O)c1cccc(C(=O)O)c1` (centres undefined) [3-[(1-Carboxy-ethyl)-(2-nitro-benzyl)-sulfamoyl]-benzoic acid], which Ki is on record?
**A.** The Ki was 2100 nM.

**Q.** For `CC(C(=O)NO)N(Cc1ccccc1[N+](=O)[O-])S(=O)(=O)c1cccc(C(=O)O)c1` (centres undefined) [3-[(1-Hydroxycarbamoyl-ethyl)-(2-nitro-benzyl)-sulfamoyl]-benzoic acid], which Ki is on record?
**A.** Its Ki is 8 nM.

**Q.** For `CC(C(=O)O)N(Cc1ccccc1[N+](=O)[O-])S(=O)(=O)c1ccc(C(=O)O)cc1` (centres undefined) [4-[(1-Carboxy-ethyl)-(2-nitro-benzyl)-sulfamoyl]-benzoic acid], which Ki is on record?
**A.** Its Ki is 1900 nM.

**Q.** Which Ki does the source give for `CC(C(=O)NO)N(Cc1ccccc1[N+](=O)[O-])S(=O)(=O)c1ccc(C(=O)O)cc1` (centres undefined) [4-[(1-Hydroxycarbamoyl-ethyl)-(2-nitro-benzyl)-sulfamoyl]-benzoic acid] here?
**A.** The Ki was 7 nM.

**Q.** With `CC(C(=O)NO)N(Cc1ccccc1[N+](=O)[O-])C(=O)Nc1cccc2ccccc12` (centres undefined) [N-Hydroxy-2-[3-naphthalen-1-yl-1-(2-nitro-benzyl)-ureido]-propionamide] as the compound, how does the Ki read?
**A.** Its Ki is 10 nM.

**Q.** For `CC(C(=O)NO)N(Cc1ccccc1[N+](=O)[O-])S(=O)(=O)c1ccccc1[N+](=O)[O-]` (centres undefined) [N-Hydroxy-2-[(2-nitro-benzenesulfonyl)-(2-nitro-benzyl)-amino]-propionamide], which Ki is on record?
**A.** Its Ki is 11 nM.

**Q.** Which Ki does the source give for `Cc1cc(C)c(S(=O)(=O)N(Cc2ccccc2[N+](=O)[O-])C(C)C(=O)NO)c(C)c1` (centres undefined) [N-Hydroxy-2-[(2-nitro-benzyl)-(2,4,6-trimethyl-benzenesulfonyl)-amino]-propionamide] here?
**A.** The Ki was 21 nM.

**Q.** Which Ki does the source give for `CC(C(=O)NO)N(Cc1ccccc1[N+](=O)[O-])Sc1ccccc1[N+](=O)[O-]` (centres undefined) [N-Hydroxy-2-[(2-nitro-benzyl)-(2-nitro-phenylsulfanyl)-amino]-propionamide] here?
**A.** The Ki was 12 nM.
